In patent publication US7388017B2, “Inhibitors of serine proteases, particularly hepatitis C virus NS3 protease” (Vertex Pharmaceuticals Incorporated, priority 1996, dated 2008) one finds Ki data, which are given here for 36 compounds.

The target in this assay is T1, HCV NS3 protease (Hepatitis C virus genotype 1a, UniProt P27958).
T1 construct: more particularly HCV NS3 proteases
The assay is described as follows: Enzyme inhibition of HCV NS3 serine protease (cleavage of peptide substrate / EDVV AbuC-p-nitroanilide, with or without NS4A). The class given is biochemical. To be noted: Enzyme inhibition data; Ki from rate vs [inhibitor] plots, Morrison tight binding competitive inhibition fit; 30 C, pH 7.8; read-out: Ki. An outline of the steps: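 Spectrophotometric assay at 30 °C following pNA release at 405 nm from EDVV AbuC-pNA substrate, with or without NS4A. Ki from rate versus [inhibitor] fitted to Morrison's tight-binding competitive inhibition equation; Kii/Kis from mixed-inhibition fits; values reported in μM.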

Starred links: 1 amine or outer side, 2 acyl side, 3 side chain; linkers in the order of their positions; H or OH if unused. Non-standard residues stand in square brackets, D forms with d. Residues, ends and D or L forms follow the SMILES beside them. *: point of attachment. X23 = CCC(N*)C(=O)c1ncc(-c2c(Cl)cccc2Cl)o1; Bip = N[CH](Cc1ccc(-c2ccccc2)cc1)C(=O)O; 1Nal = N[CH](Cc1cccc2ccccc12)C(=O)O; 2Nal = N[CH](Cc1ccc2ccccc2c1)C(=O)O; Hydrocinnamoyl = O=C(CCc1ccccc1)*; Pyrazinecarbonyl = O=C(c1cnccn1)*; 3Pal = N[CH](Cc1cccnc1)C(=O)O; Hyp = O=C(O)[CH]1C[CH](O)CN1; X12 = CCC(N*)C(=O)c1nccs1; Abu = CC[CH](N)C(=O)O; CO = O=C([*:1])[*:2]; Bz = O=C(c1ccccc1)*; NHPh = c1ccc(N*)cc1; Bn = c1ccc(C*)cc1

T1 sequence (P27958 1027-1208): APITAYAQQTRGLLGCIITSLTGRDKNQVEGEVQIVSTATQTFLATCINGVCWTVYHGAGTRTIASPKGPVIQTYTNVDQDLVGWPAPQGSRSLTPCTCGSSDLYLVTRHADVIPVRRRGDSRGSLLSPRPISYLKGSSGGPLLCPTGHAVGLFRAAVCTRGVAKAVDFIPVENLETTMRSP

Consider `CCC(NC(=O)C(CC(C)C)NC(=O)C(NC(=O)C(NC(=O)C(CC(=O)O)NC(=O)C(N)CCC(=O)O)C(C)C)C(C)C)C(=O)c1nccs1` (stereo not drawn) [Compound 125] (H-EDVVL-X12; configuration not given here), for which the inhibition constant (Ki) was 1 to 100 µM.
The same measure for `CCC(NC(=O)C(CC(C)C)NC(=O)C(NC(=O)C(NC(=O)C(CC(=O)O)NC(=O)C(N)CCC(=O)O)C(C)C)C(C)C)C(=O)c1ncc(-c2c(Cl)cccc2Cl)o1` (stereo not drawn) [Compound 126] (H-EDVVL-X23; configuration not given here): over 100 µM.
As for `CCC(C=O)NC(=O)C1CC(OCc2ccccc2)CN1C(=O)C(NC(=O)C(Cc1cccnc1)NC(=O)c1cnccn1)C(C)C` (stereo not drawn) [Compound 127] (Pyrazinecarbonyl-[3Pal]V[Hyp](Bn)[Abu]-aldehyde; configuration not given here), the Ki was over 100 µM.
With `CCC(C=O)NC(=O)C1CC(OCc2ccccc2)CN1C(=O)C(NC(=O)C(Cc1ccc(-c2ccccc2)cc1)NC(=O)c1cnccn1)C(C)C` (stereo not drawn) [Compound 130] (Pyrazinecarbonyl-[Bip]V[Hyp](Bn)[Abu]-aldehyde; configuration not given here), the Ki was over 100 µM.
The same measure for `CCC(C=O)NC(=O)C1CC(OCc2ccccc2)CN1C(=O)C(NC(=O)C(Cc1cccc2ccccc12)NC(=O)c1cnccn1)C(C)C` (stereo not drawn) [Compound 131] (Pyrazinecarbonyl-[1Nal]V[Hyp](Bn)[Abu]-aldehyde; configuration not given here): 1 to 100 µM.
In the case of `CCC(C=O)NC(=O)C1CC(OCc2ccccc2)CN1C(=O)C(NC(=O)C(Cc1ccc2ccccc2c1)NC(=O)c1cnccn1)C(C)C` (stereo not drawn) [Compound 132] (Pyrazinecarbonyl-[2Nal]V[Hyp](Bn)[Abu]-aldehyde; configuration not given here), the inhibition constant (Ki) lay in the range of 1 to 100 µM.
Then `CCC(C=O)NC(=O)C1CC(OCc2ccccc2)CN1C(=O)C(NC(=O)C(Cc1c[nH]cn1)NC(=O)c1cnccn1)C(C)C` (stereo not drawn) [Compound 134] (Pyrazinecarbonyl-HV[Hyp](Bn)[Abu]-aldehyde; configuration not given here), with over 100 µM; and `CCC(C=O)NC(=O)C1CC(OCc2ccccc2)CN1C(=O)C(NC(=O)C(Cc1ccccc1)NC(=O)c1cnccn1)C(C)C` (stereo not drawn) [Compound 141] (Pyrazinecarbonyl-FV[Hyp](Bn)[Abu]-aldehyde; configuration not given here), with 1 to 100 µM; and `CCC(C=O)NC(=O)C1CC(OCc2ccccc2)CN1C(=O)C(NC(=O)C(NC(=O)c1cnccn1)C(C)OCc1ccccc1)C(C)C` (stereo not drawn) [Compound 142] (Pyrazinecarbonyl-T(Bn)V[Hyp](Bn)[Abu]-aldehyde; configuration not given here), with 1 to 100 µM.
Then `CCC(C=O)NC(=O)C1CC(OCc2ccccc2)CN1C(=O)C(NS(=O)(=O)Cc1ccccc1)C(C)C` (stereo not drawn) [Compound 143], with over 100 µM; and `CCC(C=O)NC(=O)C1CC(OCc2ccccc2)CN1C(=O)C(NS(=O)(=O)c1ccccc1)C(C)C` (stereo not drawn) [Compound 144], with over 100 µM; and `CCC(C=O)NC(=O)C1CC(OCc2ccccc2)CN1C(=O)C(NC(=O)Nc1ccccc1)C(C)C` (stereo not drawn) [Compound 145] ({NHPh-CO}-Val-[Hyp](Bn)-[Abu]-aldehyde; configuration not given here), with 1 to 100 µM.
Take `CCC(C=O)NC(=O)C1CC(OCc2ccccc2)CN1C(=O)C(NC(=O)CCc1ccccc1)C(C)C` (stereo not drawn) [Compound 147] (Hydrocinnamoyl-Val-[Hyp](Bn)-[Abu]-aldehyde; configuration not given here): the inhibitory constant (Ki) is over 100 µM.
Then `CCC(C=O)NC(=O)C1CC(OCc2ccccc2)CN1C(=O)C(NC(=O)c1ccccc1)C(C)C` (stereo not drawn) [Compound 149] (Bz-Val-[Hyp](Bn)-[Abu]-aldehyde; configuration not given here), with 1 to 100 µM; and `CCC(C=O)NC(=O)C1CC(OCc2ccccc2)CN1C(=O)C(NC(=O)Cc1ccc(NC(C)=O)cc1)C(C)C` (stereo not drawn) [Compound 152], with over 100 µM; and `CCC(C=O)NC(=O)C1CC(OCc2ccccc2)CN1C(=O)C(NC(=O)c1ccc[nH]1)C(C)C` (stereo not drawn) [Compound 153], with 1 to 100 µM.
The same measure for `CCC(C=O)NC(=O)C1CC(OCc2ccccc2)CN1C(=O)C(NC(=O)c1cc2ccccc2[nH]1)C(C)C` (stereo not drawn) [Compound 154]: 1 to 100 µM; for `CCC(C=O)NC(=O)C1CC(OCc2ccccc2)CN1C(=O)C(NC(=O)Cc1csc(N)n1)C(C)C` (stereo not drawn) [Compound 155]: 1 to 100 µM.
On to `CCC(C=O)NC(=O)C1CC(OCc2ccccc2)CN1C(=O)C(NC(=O)c1ccc(O)c(Cl)c1)C(C)C` (stereo not drawn) [Compound 156], for which the inhibition constant Ki was 1 to 100 µM.
Then `CCC(C=O)NC(=O)C1CC(OCc2ccccc2)CN1C(=O)C(NC(=O)c1nccc2ccccc12)C(C)C` (stereo not drawn) [Compound 158], with 1 to 100 µM; and `CCC(C=O)NC(=O)C1CC(OCc2ccccc2)CN1C(=O)C(NC(=O)c1cccc2ccccc12)C(C)C` (stereo not drawn) [Compound 159], with 1 to 100 µM.
Then `CCC(C=O)NC(=O)C1CC(OCc2ccccc2)CN1C(=O)C(NC(=O)Cc1ccccc1[N+](=O)[O-])C(C)C` (stereo not drawn) [Compound 161], with over 100 µM; and `CCC(C=O)NC(=O)C1CC(OCc2ccccc2)CN1C(=O)C(NC(=O)Cc1ccsc1)C(C)C` (stereo not drawn) [Compound 163], with over 100 µM.
On to `CCC(C=O)NC(=O)C1CC(OCc2ccccc2)CN1C(=O)C(NC(=O)C(OC)c1ccccc1)C(C)C` (stereo not drawn) [Compound 164], for which the Ki is over 100 µM.
Then `CCC(C=O)NC(=O)C1CC(OCc2ccccc2)CN1C(=O)C(NC(=O)CCCc1ccccc1)C(C)C` (stereo not drawn) [Compound 166], with over 100 µM; and `CCC(C=O)NC(=O)C1CC(OCc2ccccc2)CN1C(=O)C(NC(=O)c1c(O)ccc2ccccc12)C(C)C` (stereo not drawn) [Compound 168], with 1 to 100 µM.
As for `CCC(C=O)NC(=O)C1CC(OCc2ccccc2)CN1C(=O)C(NC(=O)COc1ccccc1C=O)C(C)C` (stereo not drawn) [Compound 169], the Ki was over 100 µM.
Then `CCC(C=O)NC(=O)C1CC(OCc2ccccc2)CN1C(=O)C(NC(=O)CCC(=O)c1ccccc1)C(C)C` (stereo not drawn) [Compound 170], with over 100 µM; and `CCC(C=O)NC(=O)C1CC(OCc2ccccc2)CN1C(=O)C(NC(=O)CCOc1ccccc1)C(C)C` (stereo not drawn) [Compound 171], with over 100 µM; and `CCCCC(C(=O)O)C(=O)NC(C(=O)N1CC(OCc2ccccc2)CC1C(=O)NC(C=O)CC)C(C)C` (stereo not drawn) [Compound 172], with over 100 µM.
The same measure for `CCCC(C(=O)NC(C(=O)N1CC(OCc2ccccc2)CC1C(=O)NC(C=O)CC)C(C)C)c1ccccc1` (stereo not drawn) [Compound 174]: 1 to 100 µM.
Then `CCC(C=O)NC(=O)C1CC(OCc2ccccc2)CN1C(=O)C(NC(=O)c1c[nH]c2ccccc12)C(C)C` (stereo not drawn) [Compound 175], with 1 to 100 µM.
For the compound `CCC(C=O)NC(=O)C1CC(OCc2ccccc2)CN1C(=O)C(NC(=O)C1CCCC1c1ccccc1)C(C)C` (stereo not drawn) [Compound 177], the Ki was over 100 µM.
The same measure for `CCC(C=O)NC(=O)C1CC(OCc2ccccc2)CN1C(=O)C(NC(=O)c1c(-c2ccccc2Cl)noc1C)C(C)C` (stereo not drawn) [Compound 182]: over 100 µM; for `CCC(C=O)NC(=O)C1CC(OCc2ccccc2)CN1C(=O)C(NC(=O)c1c2c(nc3ccccc13)CCCC2)C(C)C` (stereo not drawn) [Compound 183]: 1 to 100 µM.
Then `CCC(C=O)NC(=O)C1CC(OCc2ccccc2)CN1C(=O)C(NC(=O)c1c(-c2c(Cl)cccc2Cl)noc1C)C(C)C` (stereo not drawn) [Compound 186], with over 100 µM.

In general, Ki refers to a measure of affinity in units of concentration, obtained from inhibition or displacement.
